Results on 15 compounds are retold here after ChEMBL document CHEMBL3991601, “The target landscape of clinical kinase drugs” (Science, 2017).

pKd: −log10 of the molar value. Activity calls are given as the source filed them. Rule as the data show it, for most assays here: actives have a measured Kd and inactives only a lower limit. Some results are limits rather than exact numbers.

Assay [1] concerns the target Epidermal growth factor receptor (Homo sapiens, UniProt P00533).
The target of assay [2] is T1, Probable ATP-dependent RNA helicase DDX6 (Homo sapiens, UniProt P26196).
T1 sequence (P26196 whole entry): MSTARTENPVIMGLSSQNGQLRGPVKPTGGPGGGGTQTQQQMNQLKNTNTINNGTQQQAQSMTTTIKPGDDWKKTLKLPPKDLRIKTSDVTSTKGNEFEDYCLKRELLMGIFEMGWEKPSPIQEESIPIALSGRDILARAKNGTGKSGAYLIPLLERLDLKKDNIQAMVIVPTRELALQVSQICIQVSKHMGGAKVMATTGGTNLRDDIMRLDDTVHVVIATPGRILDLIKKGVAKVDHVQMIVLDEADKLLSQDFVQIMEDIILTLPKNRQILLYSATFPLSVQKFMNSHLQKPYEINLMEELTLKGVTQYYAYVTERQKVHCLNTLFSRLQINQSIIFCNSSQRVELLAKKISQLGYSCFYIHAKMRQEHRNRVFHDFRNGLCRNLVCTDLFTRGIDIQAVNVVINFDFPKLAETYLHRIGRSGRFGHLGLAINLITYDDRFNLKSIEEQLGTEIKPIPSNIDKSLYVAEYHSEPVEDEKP

For assay [3], the target named is T2, STE20-related kinase adapter protein alpha (Homo sapiens, UniProt Q7RTN6).
T2 sequence (Q7RTN6 whole entry): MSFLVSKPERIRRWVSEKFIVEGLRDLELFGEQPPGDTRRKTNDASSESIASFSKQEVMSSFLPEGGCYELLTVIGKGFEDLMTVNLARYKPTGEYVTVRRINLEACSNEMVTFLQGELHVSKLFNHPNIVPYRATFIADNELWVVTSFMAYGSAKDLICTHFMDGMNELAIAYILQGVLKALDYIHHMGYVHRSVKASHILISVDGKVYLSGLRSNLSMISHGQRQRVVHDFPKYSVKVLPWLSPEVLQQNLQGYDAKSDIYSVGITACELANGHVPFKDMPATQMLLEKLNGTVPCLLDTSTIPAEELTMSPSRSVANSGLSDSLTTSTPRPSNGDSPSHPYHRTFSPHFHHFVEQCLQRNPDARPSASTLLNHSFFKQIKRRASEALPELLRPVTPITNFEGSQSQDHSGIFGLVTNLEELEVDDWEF

Assay [4] concerns the target Myosin light chain kinase, smooth muscle (Homo sapiens, UniProt Q15746).
The target of assay [5] is T3, Serine/threonine-protein kinase TBK1 (Homo sapiens, UniProt Q9UHD2).
T3 sequence (Q9UHD2 whole entry): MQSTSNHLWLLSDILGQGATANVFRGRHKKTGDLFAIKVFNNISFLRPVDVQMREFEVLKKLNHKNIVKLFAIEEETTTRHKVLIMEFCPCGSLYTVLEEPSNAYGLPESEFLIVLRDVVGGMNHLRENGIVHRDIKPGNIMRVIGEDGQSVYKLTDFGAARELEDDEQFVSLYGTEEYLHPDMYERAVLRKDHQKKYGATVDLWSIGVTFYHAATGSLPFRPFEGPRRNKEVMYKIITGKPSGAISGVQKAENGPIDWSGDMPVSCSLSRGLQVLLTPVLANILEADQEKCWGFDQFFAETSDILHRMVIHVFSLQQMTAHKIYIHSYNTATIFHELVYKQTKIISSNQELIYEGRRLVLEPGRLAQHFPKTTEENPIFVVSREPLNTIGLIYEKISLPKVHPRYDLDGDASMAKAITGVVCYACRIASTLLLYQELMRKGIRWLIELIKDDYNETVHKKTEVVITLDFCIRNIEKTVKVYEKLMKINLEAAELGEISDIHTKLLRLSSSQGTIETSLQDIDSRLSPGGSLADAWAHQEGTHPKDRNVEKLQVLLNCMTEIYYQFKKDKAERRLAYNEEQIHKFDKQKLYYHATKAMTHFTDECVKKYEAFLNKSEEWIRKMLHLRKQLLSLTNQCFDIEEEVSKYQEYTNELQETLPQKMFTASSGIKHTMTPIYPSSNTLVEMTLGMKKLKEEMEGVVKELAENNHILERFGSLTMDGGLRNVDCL

The target of assay [6] is Epithelial discoidin domain-containing receptor 1 (Homo sapiens, UniProt Q08345).
Epithelial discoidin domain-containing receptor 1, sequence (Q08345 whole entry, the tested form may be a part): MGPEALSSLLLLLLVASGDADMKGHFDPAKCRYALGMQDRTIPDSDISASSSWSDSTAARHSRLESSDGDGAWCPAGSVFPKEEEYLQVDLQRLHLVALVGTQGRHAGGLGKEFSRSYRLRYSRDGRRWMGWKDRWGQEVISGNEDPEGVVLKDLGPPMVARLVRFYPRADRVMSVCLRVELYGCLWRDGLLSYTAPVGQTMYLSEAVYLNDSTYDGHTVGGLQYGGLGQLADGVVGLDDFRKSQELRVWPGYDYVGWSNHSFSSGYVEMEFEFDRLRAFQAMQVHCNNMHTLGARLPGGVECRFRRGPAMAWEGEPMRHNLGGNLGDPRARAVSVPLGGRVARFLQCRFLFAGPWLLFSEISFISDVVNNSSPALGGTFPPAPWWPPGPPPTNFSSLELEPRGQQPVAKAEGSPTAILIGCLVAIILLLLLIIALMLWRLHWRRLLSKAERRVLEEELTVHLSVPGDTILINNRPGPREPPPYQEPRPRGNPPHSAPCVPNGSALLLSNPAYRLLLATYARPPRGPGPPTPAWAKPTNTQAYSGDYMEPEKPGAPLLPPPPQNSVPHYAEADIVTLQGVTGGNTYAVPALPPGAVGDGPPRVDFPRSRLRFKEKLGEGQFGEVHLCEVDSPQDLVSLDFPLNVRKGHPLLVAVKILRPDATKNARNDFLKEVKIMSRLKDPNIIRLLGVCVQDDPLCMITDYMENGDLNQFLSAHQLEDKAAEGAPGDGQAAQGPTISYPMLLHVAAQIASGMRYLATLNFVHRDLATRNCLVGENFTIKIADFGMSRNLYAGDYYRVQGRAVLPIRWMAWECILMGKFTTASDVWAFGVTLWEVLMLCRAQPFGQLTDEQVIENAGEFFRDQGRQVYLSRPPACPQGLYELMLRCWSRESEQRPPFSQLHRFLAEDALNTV
Assay [7] deals with T4, Discoidin domain-containing receptor 2 (Homo sapiens, UniProt Q16832).
T4 sequence (Q16832 whole entry): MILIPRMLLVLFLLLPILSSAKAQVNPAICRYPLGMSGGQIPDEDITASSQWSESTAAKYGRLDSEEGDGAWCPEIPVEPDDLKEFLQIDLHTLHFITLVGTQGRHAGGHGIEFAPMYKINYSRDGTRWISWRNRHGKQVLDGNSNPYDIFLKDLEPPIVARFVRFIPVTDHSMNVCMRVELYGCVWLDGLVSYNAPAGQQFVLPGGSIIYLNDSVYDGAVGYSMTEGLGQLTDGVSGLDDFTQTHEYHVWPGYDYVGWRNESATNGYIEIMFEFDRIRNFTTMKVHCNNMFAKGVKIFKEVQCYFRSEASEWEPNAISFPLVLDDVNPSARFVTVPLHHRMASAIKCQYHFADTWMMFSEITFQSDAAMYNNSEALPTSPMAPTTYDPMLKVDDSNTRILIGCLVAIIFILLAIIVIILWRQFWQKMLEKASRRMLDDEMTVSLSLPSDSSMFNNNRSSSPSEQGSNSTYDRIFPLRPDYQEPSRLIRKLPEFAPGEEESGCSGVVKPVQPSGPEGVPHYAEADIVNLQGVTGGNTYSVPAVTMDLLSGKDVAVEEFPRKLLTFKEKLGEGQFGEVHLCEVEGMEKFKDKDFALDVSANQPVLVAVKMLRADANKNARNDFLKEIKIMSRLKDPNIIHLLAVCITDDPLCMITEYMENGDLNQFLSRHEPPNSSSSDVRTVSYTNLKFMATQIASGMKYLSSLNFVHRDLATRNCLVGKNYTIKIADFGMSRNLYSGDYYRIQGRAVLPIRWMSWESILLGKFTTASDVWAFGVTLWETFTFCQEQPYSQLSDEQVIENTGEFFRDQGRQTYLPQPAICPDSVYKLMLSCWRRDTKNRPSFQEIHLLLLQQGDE
Also: in the data inactive means no Kd found up to 30 µM.

Epidermal growth factor receptor, sequence (P00533 whole entry): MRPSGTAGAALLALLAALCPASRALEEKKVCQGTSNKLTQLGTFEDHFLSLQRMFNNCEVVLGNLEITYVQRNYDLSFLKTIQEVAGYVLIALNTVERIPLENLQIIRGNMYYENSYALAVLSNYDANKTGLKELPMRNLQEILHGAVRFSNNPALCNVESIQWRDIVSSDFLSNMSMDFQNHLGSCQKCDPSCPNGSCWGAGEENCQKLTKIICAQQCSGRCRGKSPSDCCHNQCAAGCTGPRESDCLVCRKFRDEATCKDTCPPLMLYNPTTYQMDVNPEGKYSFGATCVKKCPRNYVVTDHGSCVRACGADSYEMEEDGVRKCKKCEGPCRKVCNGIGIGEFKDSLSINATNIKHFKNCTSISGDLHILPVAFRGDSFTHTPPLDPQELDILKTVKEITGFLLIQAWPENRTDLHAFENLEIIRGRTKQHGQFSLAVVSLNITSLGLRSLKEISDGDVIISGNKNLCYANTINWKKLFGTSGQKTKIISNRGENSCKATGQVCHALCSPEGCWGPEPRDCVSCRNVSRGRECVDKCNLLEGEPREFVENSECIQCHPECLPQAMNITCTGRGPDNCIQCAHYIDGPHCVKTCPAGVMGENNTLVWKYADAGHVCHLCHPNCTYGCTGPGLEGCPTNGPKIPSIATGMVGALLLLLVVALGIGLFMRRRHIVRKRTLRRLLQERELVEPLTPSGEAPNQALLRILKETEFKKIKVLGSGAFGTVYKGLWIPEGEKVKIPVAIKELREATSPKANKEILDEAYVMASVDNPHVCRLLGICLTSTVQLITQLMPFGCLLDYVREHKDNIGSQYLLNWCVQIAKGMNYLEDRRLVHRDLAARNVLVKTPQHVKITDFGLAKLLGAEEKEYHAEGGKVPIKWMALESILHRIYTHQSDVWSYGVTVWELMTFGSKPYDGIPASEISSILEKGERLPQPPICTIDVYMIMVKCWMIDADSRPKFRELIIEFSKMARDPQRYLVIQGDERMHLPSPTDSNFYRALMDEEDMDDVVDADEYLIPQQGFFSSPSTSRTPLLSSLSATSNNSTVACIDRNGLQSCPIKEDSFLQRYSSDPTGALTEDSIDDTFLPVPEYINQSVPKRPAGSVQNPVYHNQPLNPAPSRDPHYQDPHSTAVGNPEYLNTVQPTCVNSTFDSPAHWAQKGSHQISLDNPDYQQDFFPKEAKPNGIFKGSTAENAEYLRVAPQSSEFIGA
Myosin light chain kinase, smooth muscle, sequence (Q15746 whole entry): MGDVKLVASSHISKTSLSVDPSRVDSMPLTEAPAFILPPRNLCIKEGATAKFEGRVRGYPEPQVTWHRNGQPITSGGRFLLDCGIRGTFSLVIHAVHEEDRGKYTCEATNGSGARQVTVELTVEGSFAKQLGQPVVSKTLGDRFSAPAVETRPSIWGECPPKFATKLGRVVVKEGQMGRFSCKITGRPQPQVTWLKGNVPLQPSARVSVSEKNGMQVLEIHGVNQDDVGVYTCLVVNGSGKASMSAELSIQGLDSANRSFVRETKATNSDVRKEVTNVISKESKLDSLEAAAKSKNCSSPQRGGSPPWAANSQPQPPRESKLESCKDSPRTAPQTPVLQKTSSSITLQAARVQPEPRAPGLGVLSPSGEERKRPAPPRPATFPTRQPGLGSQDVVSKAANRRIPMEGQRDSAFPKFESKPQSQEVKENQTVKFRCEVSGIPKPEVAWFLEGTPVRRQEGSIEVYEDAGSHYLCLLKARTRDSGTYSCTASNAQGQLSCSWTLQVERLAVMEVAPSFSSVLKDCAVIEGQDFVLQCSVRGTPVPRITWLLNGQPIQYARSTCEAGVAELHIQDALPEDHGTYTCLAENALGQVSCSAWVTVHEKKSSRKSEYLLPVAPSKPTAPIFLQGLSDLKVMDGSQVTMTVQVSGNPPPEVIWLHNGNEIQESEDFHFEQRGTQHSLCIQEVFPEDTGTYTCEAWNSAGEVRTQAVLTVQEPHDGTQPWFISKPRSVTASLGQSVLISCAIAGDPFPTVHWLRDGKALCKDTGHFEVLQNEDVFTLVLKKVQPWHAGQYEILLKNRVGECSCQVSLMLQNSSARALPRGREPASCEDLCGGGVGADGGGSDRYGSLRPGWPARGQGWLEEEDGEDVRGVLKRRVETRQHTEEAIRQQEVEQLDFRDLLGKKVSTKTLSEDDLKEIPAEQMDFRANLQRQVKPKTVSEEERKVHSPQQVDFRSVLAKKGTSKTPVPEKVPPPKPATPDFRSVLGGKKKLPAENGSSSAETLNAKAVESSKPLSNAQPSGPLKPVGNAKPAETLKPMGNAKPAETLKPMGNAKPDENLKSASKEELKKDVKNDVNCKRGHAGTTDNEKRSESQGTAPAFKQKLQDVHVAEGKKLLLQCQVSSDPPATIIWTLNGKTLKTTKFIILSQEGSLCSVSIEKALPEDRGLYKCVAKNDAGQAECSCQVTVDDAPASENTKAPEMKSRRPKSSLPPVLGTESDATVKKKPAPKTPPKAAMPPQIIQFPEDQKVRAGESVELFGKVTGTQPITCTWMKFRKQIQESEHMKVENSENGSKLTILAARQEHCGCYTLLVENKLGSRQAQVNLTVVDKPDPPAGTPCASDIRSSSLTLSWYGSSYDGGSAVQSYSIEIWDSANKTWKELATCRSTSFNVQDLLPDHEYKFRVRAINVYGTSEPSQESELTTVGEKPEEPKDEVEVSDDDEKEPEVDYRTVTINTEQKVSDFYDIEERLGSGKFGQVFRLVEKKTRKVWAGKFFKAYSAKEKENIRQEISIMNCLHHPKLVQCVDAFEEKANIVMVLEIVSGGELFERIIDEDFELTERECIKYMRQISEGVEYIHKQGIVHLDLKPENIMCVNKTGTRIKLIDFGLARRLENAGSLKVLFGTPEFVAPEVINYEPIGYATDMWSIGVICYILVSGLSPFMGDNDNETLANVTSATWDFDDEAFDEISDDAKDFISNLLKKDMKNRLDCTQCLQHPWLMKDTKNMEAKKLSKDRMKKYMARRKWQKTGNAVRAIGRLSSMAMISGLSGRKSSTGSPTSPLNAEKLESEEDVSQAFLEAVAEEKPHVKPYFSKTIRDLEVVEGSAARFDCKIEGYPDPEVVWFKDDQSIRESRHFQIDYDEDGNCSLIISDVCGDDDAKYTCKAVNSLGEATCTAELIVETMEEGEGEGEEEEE

As for `Cc1cc(C(=O)NOCCO)c(Nc2ccc(I)cc2F)n(C)c1=O` [AZD-8330], the Kd in assay [1], in assay [2], in assay [3], in assay [4], in assay [5] and in assay [6] was > 30 µM (inactive) each time. Moreover, in assay [7], the Kd was > 30 µM (inactive).
Regarding `Cn1cnc2c(F)c(Nc3ccc(Br)cc3F)c(C(=O)NOCCO)cc21` [BINIMETINIB], the Kd in assay [1], in assay [2], in assay [3], in assay [4], in assay [5] and in assay [6] was > 30 µM (inactive) each time. In addition, the Kd in assay [7] is > 30 µM (inactive).
`CCn1c(C(=O)N(C2CC2)C2CC2)cc2c3c(ncn3C)c(Nc3cc(C)n(C)n3)nc21` [BMS-911543]: the Kd in assay [1], in assay [2], in assay [3], in assay [4], in assay [5] and in assay [6] was > 30 µM (inactive) in each case. In addition, the Kd in assay [7] is > 30 µM (inactive).
Consider `COc1c(OCCCN2CCOCC2)ccc2c1N=C(NC(=O)c1cnc(N)nc1)N1CCN=C21` [COPANLISIB], for which the Kd in assay [1], in assay [2], in assay [3], in assay [4], in assay [5] and in assay [6] was > 30 µM (inactive) in each case. The Kd in assay [7] was > 30 µM (inactive).
As to `O=C(Nc1nc2cccc(-c3ccc(CN4CCS(=O)(=O)CC4)cc3)n2n1)C1CC1` [FILGOTINIB], the Kd in assay [1], in assay [2], in assay [3], in assay [4], in assay [5] and in assay [6] was > 30 µM (inactive) in each case. Besides, the Kd in assay [7] was > 30 µM (inactive).
On to `Cc1cccc(-c2nn3c(c2-c2ccnc4ccc(C(N)=O)cc24)CCC3)n1` [GALUNISERTIB], for which the Kd in assay [1], in assay [2], in assay [3], in assay [4], in assay [5] and in assay [6] was > 30 µM (inactive) in each case. Also, the Kd in assay [7] was > 30 µM (inactive).
On to `COc1ccc(S(=O)(=O)N(C(C)=O)c2ccccc2/C=C/c2cc[n+]([O-])cc2)cc1` [HMN-214], for which the Kd in assay [1], in assay [2], in assay [3], in assay [4], in assay [5] and in assay [6] was > 30 µM (inactive) throughout. In addition, in assay [7], the Kd was > 30 µM (inactive).
On to `O=C(Nc1cc(C(F)(F)F)cc(C(F)(F)F)c1)c1cc(Cl)ccc1O` [IMD-0354], for which the Kd in assay [1], in assay [2], in assay [3], in assay [5], in assay [6] and in assay [7] was > 30 µM (inactive) in each case. Moreover, the negative logarithm of the Kd (pKd) in assay [4] was 5.49.
In the case of `NC1(c2ccc(-c3nc4ccn5c(=O)[nH]nc5c4cc3-c3ccccc3)cc2)CCC1` [MK-2206], the Kd in assay [1], in assay [2], in assay [3], in assay [4], in assay [5] and in assay [6] was > 30 µM (inactive) in each case. For the same compound, in assay [7], the Kd was > 30 µM (inactive).
As for `CN(C[C@@H]1COCCO1)S(=O)(=O)Nc1ccc2ccc3ncc(-c4cnn(C)c4)cc3c(=O)c2c1` [MK-2461], the Kd in assay [1], in assay [2], in assay [3], in assay [4], in assay [5] and in assay [6] was > 30 µM (inactive) each time. Moreover, the Kd in assay [7] is > 30 µM (inactive).
Turning to `Cn1cc(-c2cnc3ccc4ccc(CS(=O)(=O)NCc5ccccn5)cc4c(=O)c3c2)cn1` [MK-8033], the Kd in assay [1], in assay [2], in assay [3], in assay [4], in assay [5] and in assay [6] was > 30 µM (inactive) throughout. Moreover, the Kd in assay [7] was > 30 µM (inactive).
For the compound `FC(F)(F)c1ccc(/C=C/c2nc(COc3ccc(CCCCn4ccnn4)cc3)co2)cc1` [MUBRITINIB], the Kd in assay [1], in assay [2], in assay [3], in assay [4], in assay [5] and in assay [6] was > 30 µM (inactive) in each case. For the same compound, the Kd in assay [7] is > 30 µM (inactive).
On to `COc1ncc(-c2ccc3nccc(-c4ccnnc4)c3c2)cc1NS(=O)(=O)c1ccc(F)cc1F` [OMIPALISIB], for which the Kd in assay [1], in assay [2], in assay [3], in assay [4], in assay [5] and in assay [6] was > 30 µM (inactive) throughout. For the same compound, the Kd in assay [7] is > 30 µM (inactive).
With `CCCCCCCCCCCCCCCCCCOP(=O)([O-])OC1CC[N+](C)(C)CC1` [PERIFOSINE], the Kd in assay [1], in assay [2], in assay [3], in assay [4], in assay [5] and in assay [6] was > 30 µM (inactive) in each case. Further, the Kd in assay [7] was > 30 µM (inactive).
For the compound `Cc1cnc(NC(=O)Nc2cc(Br)c(C)cc2OC[C@@H]2CNCCO2)cn1` [RABUSERTIB], the Kd in assay [1], in assay [2], in assay [3], in assay [4], in assay [5] and in assay [6] was > 30 µM (inactive) throughout. Also, the Kd in assay [7] was > 30 µM (inactive).
